For series [1], the system named is gene expression in Th9 cells. Kind of series: Bulk RNA-seq of Th9 cells (Figure 3A-D, 7G, S5B, S8G-H). It counts as cell-based, mouse. The arrangement: key to Il13 expression (RNA-seq) / Batf expression (RNA-seq) / Il4 expression (RNA-seq) / Il5 expression (RNA-seq) / Il9 expression (RNA-seq) / Tnfsf15 expression (RNA-seq) / Tnf expression (RNA-seq) / Lta expression (RNA-seq) / Fasl expression (RNA-seq) / Tnfsf9 expression (RNA-seq) / Tnfsf14 expression (RNA-seq): FPKM (fragments per kilobase of transcript per million mapped reads). The conditions noted are these: for cluster 2 genes (calcium ion transport, glycolysis, oxidative phosphorylation, ERK signaling) / lipid biosynthesis genes: RNA-seq clustering; for Fpkm of Slc2a1: Supplemental Figure 5B. The protocol: RNA integrity and concentration were assessed by Majorbio Technologies. RNA-seq libraries were constructed following standard Illumina protocols and sequenced using a paired-end strategy on an Illumina platform.
Raw sequencing reads were quality filtered and adapter trimmed using Trim Galore (v0.6.x) and then aligned to the mouse reference genome (GRCm38) with HISAT2 (v2.2.x). Gene-level quantification was performed using featureCounts (v2.0.x) to obtain raw read counts, which were subsequently normalized as fragments per kilobase of transcript per million mapped reads for exploratory analyses and data visualization.
Differential gene expression analysis was conducted using DESeq2 (v1.44.0) in R, with significance thresholds set at an adjusted P < 0.05 and absolute fold change ≥1.5. Visualization of transcriptomic profiles included volcano plots generated via ggplot2 (v3.5.1) and heatmaps rendered using pheatmap (v1.0.12), based on raw expression values.
Gene expression clustering was conducted using the R package ClusterGVis (v0.1.2).

The next series concerns Th9 cells. Kind of series: IL-9+ Th9 cells with fatostatin (Figure 7A). It counts as cell-based, mouse. The arrangement: IL-9 expression in Th9 cells: unit not given here. The conditions noted are these: for IL-9 expression in Th9 cells: Figure 7A, individual replicates, one per column (n = 4); for IL-9 production: fatostatin 5 μM, alone or with EpA 10 μM, result in words. The source says:
(B) Quantitative PCR analysis of Il9 mRNA expression in cells treated as in A (n = 3). (C–F) Flow cytometric analysis of TNF-α production (C), CD69 expression (D), PD-1 expression (E), and mitochondrial membrane potential measured by MitoTracker staining (F) in Th9 cells treated with the indicated conditions (n = 4 for C–E; n = 3 for F). […] Cluster 2 includes genes related to calcium signaling, glycolysis, oxidative phosphorylation, and ERK signaling; cluster 6 includes genes associated with lipid biosynthesis. […] Statistical significance was determined using 1-way ANOVA followed by Tukey’s post hoc test (A–F and H–J). Data are presented as mean ± SEM (A–F and H–J). **P < 0.01, ***P < 0.001, ****P < 0.0001. […] It is left out because it is the vehicle control, not a substance.
T cell polarization was initiated under plate-bound anti-CD3 (2 μg/mL, clone 17A2, BioXCell, catalog BE0002) and soluble anti-CD28 (1 μg/mL, clone 37.51, BioXCell, catalog BE0015-1) stimulation, with the addition of cytokines and neutralizing antibodies specific to each subset. For Th9 cells, these included IL-4 (10 ng/mL, Peprotech, catalog 400-04), TGF-β (1 ng/mL, EPOTO Biotech, catalog HF-2021), anti–IL-12 (5 μg/mL, clone C17.8, BioXCell, catalog BE0051), and anti–IFN-γ (10 μg/mL, clone XMG1.2, BioXCell, catalog BE0055); for Th1 cells, these included IL-12 (10 ng/mL, GenScript, catalog Z03211-50) and anti–IL-4 (5 μg/mL, clone 11B11, BioXCell, catalog BE0045); for Th2 cells, these included IL-4 (50 ng/mL), anti–IFN-γ (20 μg /mL), anti–IL-12 (5 μg/mL), Th17 cells: IL-6 (20 ng/mL, EPOTO Biotech, catalog MF-1006), TGF-β (1 ng/mL), IL-1β (10 ng/mL, Peprotech, catalog AF-211-11B), anti–IFN-γ (10 μg/mL), anti–IL-12 (5 μg/mL), and anti–IL-4 (5 μg/mL); and for Tregs, these included TGF-β (3 ng/mL). After 3 days of initial culture, cells were either collected for downstream assays or continued in extended culture with refreshed cytokines to maintain lineage commitment.
[…] Dead cells were detected using Fixable Viability Dye eFluor 780 (eBioscience, catalog 65-0865).

Where [2] appears, read: EpA + fatostatin, result in words.
Setting [3] is: EpA vs control, adjusted P < 0.05, fold change ≥1.5.
The mark [4] stands for this setting: Th9, day 4, samples EPA_1 to EPA_3.

Where “and” joins values, the source holds several entries; their conditions need not be identical. Equal entries are not always repeated. Structures can show the parent of a compound that is named as a salt.

For the molecule `CCCc1cc(-c2nc(-c3ccc(C)cc3)cs2)ccn1` [fatostatin, fatostatin hydrobromide, reference compound], in series [1] (result in words), the “cluster 2 genes (calcium ion transport, glycolysis, oxidative phosphorylation, ERK signaling)” value is “further enhanced” and the lipid biosynthesis genes entry is “further suppressed”. Also, the “IL-9 expression in Th9 cells” value in the series with Th9 cells (single agent) was 25.4 and 26.8 and 28.6 and 27.5. Also, the IL-9 production result in the series on Th9 cells is recorded as “significantly upregulated IL-9 production”.

Turning to anteiso-C15 Leu7 surfactin [EpA], in series [1] (setting [2]), the Fads1 expression entry is on record as “reduced expression” and the Srebp1 expression result was “reduced expression”. Moreover, in series [1] (setting [3]), the “number of downregulated genes” value is 271 and the “number of upregulated genes” value is 228. In series [1] (result in words), the “cluster 2 genes (calcium ion transport, glycolysis, oxidative phosphorylation, ERK signaling)” value is on record as “notably upregulated”; the lipid biosynthesis genes entry was “progressively downregulated”; the SLC2A1 expression result is “markedly upregulated”; the “Th9 cytokines (Il9, Il4, Il5, Il13) and Spi1, Batf expression” value is reported as “upregulated”. Also, in series [1] (result in words), the “cytotoxic effector molecules Tnf, Lta, Fasl” value is given as “strong upregulation”. Besides, the “Fpkm of Slc2a1” value in series [1] (replicate 1) worked out at 48.3562 Fpkm. Moreover, in series [1] (replicate 2), the “Fpkm of Slc2a1” value is reported as 48.7446 Fpkm. Moreover, in series [1] (replicate 3), the “Fpkm of Slc2a1” value was 49.9027 Fpkm. Moreover, in series [1] (setting [4]), the “Batf expression (RNA-seq)” value is 93.0998 and 96.722 and 96.1164; the “Fasl expression (RNA-seq)” value was 9.708 and 9.458 and 10.2176; the “Il4 expression (RNA-seq)” value is 8.523 and 8.979 and 8.835; the “Il5 expression (RNA-seq)” value was 0.7687 and 0.6368 and 0.9066. Also, in series [1] (setting [4]), the “Il9 expression (RNA-seq)” value was 619.89 and 651.961 and 648.029; the “Il13 expression (RNA-seq)” value was 15.584 and 17.9728 and 14.2881; the “Lta expression (RNA-seq)” value is 41.371 and 42.2064 and 41.7705; the “Tnf expression (RNA-seq)” value was 5.46 and 5.834 and 6.11. Also, in series [1] (setting [4]), the “Tnfsf9 expression (RNA-seq)” value was 1.423 and 1.362 and 1.3365; the “Tnfsf14 expression (RNA-seq)” value was 5.499 and 5.503 and 5.511; the “Tnfsf15 expression (RNA-seq)” value is 0.1165 and 0.1206 and 0.07294. In the series with Th9 cells, the “IL-9 expression in Th9 cells” value was 74.4 and 75.9 and 77.3 and 78.9; the IL-9 production entry is reported as “further enhanced when combined with EpA”. In addition, the “IL-9 expression in Th9 cells” value with Th9 cells (single agent) was 46.6 and 46.1 and 47.5 and 45.4.

These data come from article PMC12867150, “A fungi-derived cyclic peptide enhances Th9-mediated antitumor immunity by targeting ZAP70 and SREBP1” (The Journal of Clinical Investigation, 2025).
